Assay results from patent US20260262643A1, “HERBICIDAL BENZOXAZINES” (FMC CORPORATION, priority 2022, published 2026).

Legend:
green foxtail [1] = test: Test C preemergence; assay type: in vivo, Setaria viridis
Outline: (§1)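 Greenhouse herbicide screen, 10-day duration. Test chemicals in solvent/surfactant blend were sprayed onto soil at sowing (pre) or onto 2–10 cm seedlings at one to two leaves (post); injury scored visually against controls, 0 no effect to 100 complete control.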

ryegrass, Italian [2] = test: Test C postemergence; assay type: in vivo, Lolium multiflorum; conditions: 10 days, 0 to 100 scale (0 no effect, 100 complete control)
Outline: as §1

sedge, umbrella = test: Test D flooded paddy test; assay type: in vivo, Cyperus difformis; conditions: 250 g ai/ha, applied to paddy water, visual rating after 13 to 14 days, scale 0 to 100 (0 no effect, 100 complete control)
Outline: (§2)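 At the 2-leaf stage, floodwater 3 cm deep received the test compound; that depth persisted throughout. Plants scored visually 13 to 14 days on, 0 (no effect) to 100 (complete control), dash indicating no result.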

barnyardgrass [3] = test: Test C postemergence; assay type: in vivo, Echinochloa crusgalli; conditions: 10 days, 0 to 100 scale (0 no effect, 100 complete control)
Outline: as §1

green foxtail [4] = test: Test C postemergence; assay type: in vivo, Setaria viridis; conditions: 10 days, 0 to 100 scale (0 no effect, 100 complete control)
Outline: as §1

pigweed, palmer [5] = test: Test C preemergence; assay type: in vivo, Amaranthus palmeri
Outline: as §1

horseweed = test: Test C postemergence; assay type: in vivo, Erigeron canadensis; conditions: 10 days, 0 to 100 scale (0 no effect, 100 complete control)
Outline: as §1

galium = test: Test C postemergence; assay type: in vivo, Galium aparine; conditions: 10 days, 0 to 100 scale (0 no effect, 100 complete control)
Outline: as §1

wheat [6] = test: Test C postemergence; assay type: in vivo, Triticum aestivum; conditions: 10 days, 0 to 100 scale (0 no effect, 100 complete control)
Outline: as §1

rice = test: Test D flooded paddy test; assay type: in vivo, Oryza sativa; conditions: 250 g ai/ha, applied to paddy water, visual rating after 13 to 14 days, scale 0 to 100 (0 no effect, 100 complete control)
Outline: as §2

ragweed [7] = test: Test C preemergence; assay type: in vivo, Ambrosia artemisiifolia
Outline: as §1

oat, wild [8] = test: Test C postemergence; assay type: in vivo, Avena fatua; conditions: 10 days, 0 to 100 scale (0 no effect, 100 complete control)
Outline: as §1

wheat [9] = test: Test C preemergence; assay type: in vivo, Triticum aestivum
Outline: as §1

oat, wild [10] = test: Test C preemergence; assay type: in vivo, Avena fatua
Outline: as §1

soybean [11] = test: Test C postemergence; assay type: in vivo, Glycine max; conditions: 10 days, 0 to 100 scale (0 no effect, 100 complete control)
Outline: as §1

corn [12] = test: Test C preemergence; assay type: in vivo, Zea mays
Outline: as §1

barnyardgrass [13] = test: Test D flooded paddy test; assay type: in vivo, Echinochloa crus-galli; conditions: 250 g ai/ha, applied to paddy water, visual rating after 13 to 14 days, scale 0 to 100 (0 no effect, 100 complete control)
Outline: as §2

soybean [14] = test: Test C preemergence; assay type: in vivo, Glycine max
Outline: as §1

ryegrass, Italian [15] = test: Test C preemergence; assay type: in vivo, Lolium multiflorum
Outline: as §1

blackgrass [16] = test: Test C preemergence; assay type: in vivo, Alopecurus myosuroides
Outline: as §1

pigweed, palmer [17] = test: Test C postemergence; assay type: in vivo, Amaranthus palmeri; conditions: 10 days, 0 to 100 scale (0 no effect, 100 complete control)
Outline: as §1

barnyardgrass [18] = test: Test C preemergence; assay type: in vivo, Echinochloa crusgalli
Outline: as §1

corn [19] = test: Test C postemergence; assay type: in vivo, Zea mays; conditions: 10 days, 0 to 100 scale (0 no effect, 100 complete control)
Outline: as §1

blackgrass [20] = test: Test C postemergence; assay type: in vivo, Alopecurus myosuroides; conditions: 10 days, 0 to 100 scale (0 no effect, 100 complete control)
Outline: as §1

ragweed [21] = test: Test C postemergence; assay type: in vivo, Ambrosia artemisiifolia; conditions: 10 days, 0 to 100 scale (0 no effect, 100 complete control)
Outline: as §1

kochia [22] = test: Test C preemergence; assay type: in vivo, Bassia scoparia
Outline: as §1

kochia [23] = test: Test C postemergence; assay type: in vivo, Bassia scoparia; conditions: 10 days, 0 to 100 scale (0 no effect, 100 complete control)
Outline: as §1

ducksalad = test: Test D flooded paddy test; assay type: in vivo, Heteranthera limosa; conditions: 250 g ai/ha, applied to paddy water, visual rating after 13 to 14 days, scale 0 to 100 (0 no effect, 100 complete control)
Outline: as §2

[24] = 500 g ai/ha, preemergence, 0 to 100 scale (0 no effect, 100 complete control)
[25] = Preemergence, 125 g ai/ha, 0 to 100 scale, 0 no effect, 100 complete control

C[C@H]1CN(C(=O)c2cccc(-n3cnc(C4CC4)n3)c2)c2cccc(Cl)c2O1 [Compound 325]
Foxtail, Green plant response rating (green foxtail [1]; [24]): 100 | Plant response rating, Foxtail, Green (green foxtail [1]; [25]): 100 | Plant response rating, Ryegrass, Italian (ryegrass, Italian [2]; 500 g ai/ha, postemergence): 80 | Plant response rating, Ryegrass, Italian (ryegrass, Italian [2]; Postemergence, 125 g ai/ha): 30 | Plant response rating, Sedge, Umbrella (Flood) (sedge, umbrella): 75 | Plant response rating, Barnyardgrass (barnyardgrass [3]; 500 g ai/ha, postemergence): 80 | Plant response rating, Barnyardgrass (barnyardgrass [3]; Postemergence, 125 g ai/ha): 40 | Plant response rating, Foxtail, Green (green foxtail [4]; 500 g ai/ha, postemergence): 90 | Plant response rating, Foxtail, Green (green foxtail [4]; Postemergence, 125 g ai/ha): 60 | Pigweed, Palmer plant response rating (pigweed, palmer [5]; [24]): 100 | Plant response rating, Pigweed, Palmer (pigweed, palmer [5]; [25]): 100 | Plant response rating, Horseweed (horseweed; 500 g ai/ha, postemergence): 60 | Plant response rating, Horseweed (horseweed; Postemergence, 125 g ai/ha): 0 | Plant response rating, Galium (galium; 500 g ai/ha, postemergence): 100 | Plant response rating, Galium (galium; Postemergence, 125 g ai/ha): 100 | Plant response rating, Wheat (wheat [6]; 500 g ai/ha, postemergence): 60 | Plant response rating, Wheat (wheat [6]; Postemergence, 125 g ai/ha): 20 | Plant response rating, Rice (Flood) (rice): 0 | Ragweed plant response rating (ragweed [7]; [24]): 70 | Plant response rating, Ragweed (ragweed [7]; [25]): 20 | Plant response rating, Oat, Wild (oat, wild [8]; 500 g ai/ha, postemergence): 70 | Plant response rating, Oat, Wild (oat, wild [8]; Postemergence, 125 g ai/ha): 10 | Wheat plant response rating (wheat [9]; [24]): 30 | Plant response rating, Wheat (wheat [9]; [25]): 10 | Oat, Wild plant response rating (oat, wild [10]; [24]): 90 | Plant response rating, Oat, Wild (oat, wild [10]; [25]): 60 | Plant response rating, Soybean (soybean [11]; 500 g ai/ha, postemergence): 100 | Plant response rating, Soybean (soybean [11]; Postemergence, 125 g ai/ha): 100 | Corn plant response rating (corn [12]; [24]): 10 | Plant response rating, Corn (corn [12]; [25]): 10 | Plant response rating, Barnyardgrass (Flood) (barnyardgrass [13]): 0 | Soybean plant response rating (soybean [14]; [24]): 40 | Plant response rating, Soybean (soybean [14]; [25]): 40 | Ryegrass, Italian plant response rating (ryegrass, Italian [15]; [24]): 90 | Plant response rating, Ryegrass, Italian (ryegrass, Italian [15]; [25]): 60 | Blackgrass plant response rating (blackgrass [16]; [24]): 80 | Plant response rating, Blackgrass (blackgrass [16]; [25]): 60 | Plant response rating, Pigweed, Palmer (pigweed, palmer [17]; 500 g ai/ha, postemergence): 100 | Plant response rating, Pigweed, Palmer (pigweed, palmer [17]; Postemergence, 125 g ai/ha): 90 | Barnyardgrass plant response rating (barnyardgrass [18]; [24]): 100 | Plant response rating, Barnyardgrass (barnyardgrass [18]; [25]): 40 | Plant response rating, Corn (corn [19]; 500 g ai/ha, postemergence): 50 | Plant response rating, Corn (corn [19]; Postemergence, 125 g ai/ha): 30 | Plant response rating, Blackgrass (blackgrass [20]; 500 g ai/ha, postemergence): 70 | Plant response rating, Blackgrass (blackgrass [20]; Postemergence, 125 g ai/ha): 10 | Plant response rating, Ragweed (ragweed [21]; 500 g ai/ha, postemergence): 70 | Plant response rating, Ragweed (ragweed [21]; Postemergence, 125 g ai/ha): 50 | Kochia plant response rating (kochia [22]; [24]): 90 | Plant response rating, Kochia (kochia [22]; [25]): 40 | Plant response rating, Kochia (kochia [23]; 500 g ai/ha, postemergence): 90 | Plant response rating, Kochia (kochia [23]; Postemergence, 125 g ai/ha): 90 | Plant response rating, Ducksalad (Flood) (ducksalad): 35
